Data published in EP4238971A1, “SUBSTITUTED ISOXAZOLINE DERIVATIVES” (BASF SE, priority 2022, dated 2023).
Where two headings read alike, the source gives them in different places.

Legend:
Type in all cases: in vivo
Spodoptera eridania = experiment: Southern armyworm (Spodoptera eridania), 2nd instar larvae, sprayed lima bean plants; conditions: for mortality in comparison with untreated controls: 300ppm, 2nd instar larvae, assessed 4 days after treatment; for mortality at 300 ppm: Spodoptera eridania, 96 h, read-out: mortality in comparison with untreated controls
Protocol: B.7. Southern armyworm (Spodoptera eridania), 2nd instar larvae
The active compounds were formulated by a Tecan liquid handler in 100% cyclohexanone as a 10'000 ppm solution supplied in tubes. The 10'000 ppm solution was serially diluted in 100% cyclohexanone to make interim solutions. These served as stock solutions for which final dilutions were made by the Tecan in 50% acetone:50% water (v/v) into 10 or 20ml glass vials. A nonionic surfactant (Kinetic®) was included in the solution at a volume of 0.01% (v/v). The vials were then inserted into an automated electrostatic sprayer equipped with an atomizing nozzle for application to plants/insects. Lima bean plants (variety Sieva) were grown 2 plants to a pot and selected for treatment at the 1st true leaf stage. Test solutions were sprayed onto the foliage by an automated electrostatic plant sprayer equipped with an atomizing spray nozzle. The plants were dried in the sprayer fume hood and then removed from the sprayer. Each pot was placed into perforated plastic bags with a zip closure. Ten to 11 armyworm larvae were placed into the bag and the bags zipped closed. Test plants were maintained in a growth room at about 25°C and about 20-40% relative humidity for 4 days, avoiding direct exposure to fluorescent light (14:10 light:dark photo-period) to prevent trapping of heat inside the bags. Mortality and reduced feeding were assessed 4 days after treatment, compared to untreated control plants.

Plutella xylostella = experiment: Diamond back moth (Plutella xylostella), cabbage leaf disc dip test; conditions: for mortality at 300 ppm: Plutella xylostella, foliar, read-out: mortality in comparison with untreated controls
Protocol: B.5. Diamond back moth (Plutella xylostella)
The active compound was dissolved at the desired concentration in a mixture of 1:1 (vol:vol) distilled water: acetone. Surfactant (Kinetic) was added at a rate of 0.01% (vol/vol). The test solution was prepared at the day of use. Cabbage leaf discs (60mm in diameter) were dipped in test solution and air-dried. Treated leaves were placed in petri dishes lined with moistened filter paper and inoculated with ten 3rd instar larvae. Mortality was recorded 72 hours after treatment. Feeding damages were also recorded using a scale of 0-100%.

Anthonomus grandis = experiment: Boll weevil (Anthonomus grandis) control, insect diet in 96-well microtiter plates; conditions: for mortality in comparison with untreated controls: 2500ppm; for mortality at 2500 ppm: Anthonomus grandis, 120 h, read-out: mortality in comparison with untreated controls
Protocol: (§1) If not otherwise specified, the test solutions were prepared as follows: The active compound was dissolved at the desired concentration in a mixture of 1:1 (vol:vol) distilled water:acetone. The test solution was prepared at the day of use.
(§2) Test solutions were prepared in general at a concentration of 2500ppm (wt/vol).
B.1. Boll weevil (Anthonomus grandis)
For evaluating control of boll weevil, the test unit consisted of 96-well-microtiter plates containing an insect diet and 5-10 A. grandis eggs.
The compounds were formulated using a solution containing 75% v/v water and 25% v/v DMSO. Different concentrations of formulated compounds were sprayed onto the insect diet at 5µl, using a custom-built micro atomizer, at two replications.
After application, microtiter plates were incubated at about 25 ± 1°C and about 75 ± 5 % relative humidity for 5 days. Egg and larval mortality were then visually assessed.

Dichromothrips corbetti = experiment: Orchid thrips (Dichromothrips corbetti), floral-immersion technique; conditions: for mortality at 300 ppm: Dichromothrips corbetti, read-out: mortality in comparison with untreated controls
Protocol: B.6. Orchid thrips (Dichromothrips corbetti)
Dichromothrips corbetti adults used for bioassay were obtained from a colony maintained continuously under laboratory conditions. For testing purposes, the test compound was diluted in a 1:1 mixture of acetone:water (vol:vol), plus Kinetic at a rate of 0.01% v/v.
Thrips potency of each compound was evaluated by using a floral-immersion technique. Each orchid petal was dipped into treatment solution and allowed to dry in Petri dishes. Treated petals were placed into individual re-sealable plastic along with about 20 adult thrips. All test arenas were held under dark condition and a temperature of about 28°C for duration of the assay. The percent mortality was recorded 72 hours after treatment.

Aedes aegypti = experiment: whole plant or invertebrate; conditions: larval mortality visually assessed after 2 days; for mortality in comparison with untreated controls: 2500ppm; for mortality at 2500 ppm: Aedes aegypti, 48 h, read-out: mortality in comparison with untreated controls
Protocol: as §1, §2
B.4. Yellow fever mosquito (Aedes aegypti)
For evaluating control of Yellow Fever Mosquito, the test unit consisted of 96-well-microtiter plates containing 200µl of tap water per well and 5-15 freshly hatched A. aegypti larvae. The active compounds were formulated using a solution containing 75% (v/v) water and 25% (v/v) DMSO. Different concentrations of formulated compounds or mixtures were sprayed onto the insect diet at 2.5µl, using a custom-built micro atomizer, at two replications.
After application, microtiter plates were incubated at 28 ± 1°C, 80 ± 5 % RH for 2 days. Larval mortality was then visually assessed.

Myzus persicae = experiment: Green peach aphid (Myzus persicae), mixed life stages, systemic test via artificial diet under membrane; conditions: for mortality at 2500 ppm: Myzus persicae, 72 h, read-out: mortality in comparison with untreated controls
Protocol: as §1, §2
B.2. Green peach aphid (Myzus persicae) (mixed life stages)
For evaluating control of Green Peach Aphid through systemic means the test unit consisted of 96-well-microtiter plates containing liquid artificial diet under an artificial membrane. The compounds were formulated using a solution containing 75% v/v water and 25% v/v DMSO. Different concentrations of formulated compounds were pipetted into the aphid diet, using a custom-built pipette, at two replications. After application, 5 - 8 adult aphids were placed on the artificial membrane inside the microtiter plate wells. The aphids were then allowed to suck on the treated aphid diet and incubated at about 23 ± 1°C and about 50 ± 5 % relative humidity for 3 days. Aphid mortality and fecundity was then visually assessed.

Heliothis virescens = experiment: Tobacco budworm (Heliothis virescens) control, insect diet in 96-well microtiter plates; conditions: for mortality at 2500 ppm: Heliothis virescens, 120 h, read-out: mortality in comparison with untreated controls
Protocol: as §1, §2
B.3. Tobacco budworm (Heliothis virescens)
For evaluating control of Tobacco Budworm, the test unit consisted of 96-well-microtiter plates containing an insect diet and 15-25 H. virescens eggs. The compounds were formulated using a solution containing 75% v/v water and 25% v/v DMSO. Different concentrations of formulated compounds were sprayed onto the insect diet at 10µl, using a custom-built micro atomizer, at two replications. After application, microtiter plates were incubated at about 28 ± 1°C and about 80 ± 5 % relative humidity for 5 days. Egg and larval mortality was then visually assessed.

[1] = 300ppm, 3rd instar larvae, mortality recorded 72 hours after treatment
[2] = egg and larval mortality visually assessed after 5 days
[3] = 300ppm, adult thrips, mortality recorded 72 hours after treatment
[4] = 2500ppm, aphid mortality visually assessed after 3 days
[5] = 2500ppm, egg and larval mortality visually assessed after 5 days

N#Cc1ccc(NC2=NOC(c3cc(Cl)cc(Cl)c3)(C(F)(F)F)C2)cc1-n1cncn1 (stereo not shown) [I-1]
mortality in comparison with untreated controls (Spodoptera eridania): at least 75% | mortality in comparison with untreated controls (Plutella xylostella; [1]): at least 75% | mortality in comparison with untreated controls (Anthonomus grandis; [2]): at least 75% | mortality in comparison with untreated controls (Dichromothrips corbetti; [3]): at least 75% | mortality in comparison with untreated controls (Aedes aegypti): at least 75% | mortality in comparison with untreated controls (Myzus persicae; [4]): at least 75% | mortality in comparison with untreated controls (Heliothis virescens; [5]): at least 75%

N#Cc1ccc(NC2=NOC(c3cc(Cl)c(F)c(Cl)c3)(C(F)(F)F)C2)cc1-n1cncn1 (stereo not shown) [I-4, 4-[[5-(3,5-dichloro-4-fluoro-phenyl)-5-(trifluoromethyl)-4H-isoxazol-3-yl]amino]-2-(1,2,4-triazol-1-yl)benzonitrile]
mortality at 300 ppm (Spodoptera eridania): ≥ 75% | mortality at 300 ppm (Plutella xylostella; 72 h): ≥ 75% | mortality at 2500 ppm (Anthonomus grandis): ≥ 75% | mortality at 300 ppm (Dichromothrips corbetti; 72 h): ≥ 75% | mortality at 2500 ppm (Aedes aegypti): ≥ 75% | mortality at 2500 ppm (Myzus persicae): ≥ 75% | mortality at 2500 ppm (Heliothis virescens): ≥ 75%

N#Cc1ccc(NC2=NOC(c3cccc(C(F)(F)F)c3)(C(F)(F)F)C2)cc1-n1cncn1 (stereo not shown) [I-5]
mortality in comparison with untreated controls (Spodoptera eridania): at least 75% | mortality in comparison with untreated controls (Plutella xylostella; [1]): at least 75% | mortality in comparison with untreated controls (Anthonomus grandis; [2]): at least 75% | mortality in comparison with untreated controls (Dichromothrips corbetti; [3]): at least 75% | mortality in comparison with untreated controls (Aedes aegypti): at least 75% | mortality in comparison with untreated controls (Myzus persicae; [4]): at least 75% | mortality in comparison with untreated controls (Heliothis virescens; [5]): at least 75%

N#Cc1ccc(NC2=NOC(c3ccc(F)c(Cl)c3)(C(F)(F)F)C2)cc1-n1cncn1 (stereo not shown) [I-6]
mortality in comparison with untreated controls (Spodoptera eridania): at least 75% | mortality in comparison with untreated controls (Plutella xylostella; [1]): at least 75% | mortality in comparison with untreated controls (Anthonomus grandis; [2]): at least 75% | mortality in comparison with untreated controls (Dichromothrips corbetti; [3]): at least 75% | mortality in comparison with untreated controls (Aedes aegypti): at least 75% | mortality in comparison with untreated controls (Myzus persicae; [4]): at least 75% | mortality in comparison with untreated controls (Heliothis virescens; [5]): at least 75%

CN(C1=NOC(c2cc(Cl)cc(Cl)c2)(C(F)(F)F)C1)c1ccc(C#N)c(-n2cncn2)c1 (stereo not shown) [I-7]
mortality in comparison with untreated controls (Spodoptera eridania): at least 75% | mortality in comparison with untreated controls (Plutella xylostella; [1]): at least 75% | mortality in comparison with untreated controls (Anthonomus grandis; [2]): at least 75% | mortality in comparison with untreated controls (Dichromothrips corbetti; [3]): at least 75% | mortality in comparison with untreated controls (Aedes aegypti): at least 75% | mortality in comparison with untreated controls (Myzus persicae; [4]): at least 75% | mortality in comparison with untreated controls (Heliothis virescens; [5]): at least 75%

CN(C1=NOC(c2ccc(F)c(Cl)c2)(C(F)(F)F)C1)c1ccc(C#N)c(-n2cncn2)c1 (stereo not shown) [I-9]
mortality in comparison with untreated controls (Spodoptera eridania): at least 75% | mortality in comparison with untreated controls (Plutella xylostella; [1]): at least 75% | mortality in comparison with untreated controls (Anthonomus grandis; [2]): at least 75% | mortality in comparison with untreated controls (Dichromothrips corbetti; [3]): at least 75% | mortality in comparison with untreated controls (Aedes aegypti): at least 75% | mortality in comparison with untreated controls (Myzus persicae; [4]): at least 75% | mortality in comparison with untreated controls (Heliothis virescens; [5]): at least 75%

Fc1c(Cl)cc(C2(C(F)(F)F)CC(Nc3ccc(Cl)c(-n4cnc(C(F)(F)F)c4)c3)=NO2)cc1Cl (stereo not shown) [I-16, N-[4-chloro-3-[4-(trifluoromethyl)imidazol-1-yl]phenyl]-5-(3,5-dichloro-4-fluoro-phenyl)-5-(trifluoromethyl)-4H-isoxazol-3-amine]
mortality at 300 ppm (Plutella xylostella; 72 h): ≥ 75% | mortality at 2500 ppm (Anthonomus grandis): ≥ 75% | mortality at 300 ppm (Dichromothrips corbetti; 72 h): ≥ 75% | mortality at 2500 ppm (Aedes aegypti): ≥ 75% | mortality at 2500 ppm (Myzus persicae): ≥ 75% | mortality at 2500 ppm (Heliothis virescens): ≥ 75%

O=C(NCC(F)(F)F)c1cnn(-c2cc(NC3=NOC(c4cc(Cl)c(F)c(Cl)c4)(C(F)(F)F)C3)ccc2Cl)c1 (stereo not shown) [I-18, 1-[2-chloro-5-[[5-(3,5-dichloro-4-fluoro-phenyl)-5-(trifluoromethyl)-4H-isoxazol-3-yl]amino]phenyl]-N-(2,2,2-trifluoroethyl)pyrazole-4-carboxamide]
mortality at 300 ppm (Plutella xylostella; [1]): ≥ 75% | mortality at 2500 ppm (Anthonomus grandis; 2500 ppm, egg and larval mortality visually assessed after 5 days): ≥ 75% | mortality at 300 ppm (Dichromothrips corbetti; [3]): ≥ 75% | mortality at 2500 ppm (Myzus persicae; [4]): ≥ 75% | mortality at 2500 ppm (Heliothis virescens; [5]): ≥ 75%

CCN(C1=NOC(c2cc(Cl)c(F)c(Cl)c2)(C(F)(F)F)C1)c1ccc(C#N)c(-n2cncn2)c1 (stereo not shown) [I-20, 4-[[5-(3,5-dichloro-4-fluoro-phenyl)-5-(trifluoromethyl)-4H-isoxazol-3-yl]-ethyl-amino]-2-(1,2,4-triazol-1-yl)benzonitrile]
mortality at 300 ppm (Spodoptera eridania): ≥ 75% | mortality at 300 ppm (Plutella xylostella; 72 h): ≥ 75% | mortality at 2500 ppm (Anthonomus grandis): ≥ 75% | mortality at 300 ppm (Dichromothrips corbetti; 72 h): ≥ 75% | mortality at 2500 ppm (Aedes aegypti): ≥ 75% | mortality at 2500 ppm (Heliothis virescens): ≥ 75%

COCN(C1=NOC(c2cc(Cl)c(F)c(Cl)c2)(C(F)(F)F)C1)c1ccc(C#N)c(-n2cncn2)c1 (stereo not shown) [I-22]
mortality in comparison with untreated controls (Plutella xylostella; [1]): at least 75% | mortality in comparison with untreated controls (Dichromothrips corbetti; [3]): at least 75%

CCOC(=O)N(C1=NOC(c2cc(Cl)c(F)c(Cl)c2)(C(F)(F)F)C1)c1ccc(Cl)c(-n2cnc(C(F)(F)F)c2)c1 (stereo not shown) [I-26, ethyl N-[4-chloro-3-[4-(trifluoromethyl)imidazol-1-yl]phenyl]-N-[5-(3,5-dichloro-4-fluoro-phenyl)-5-(trifluoromethyl)-4H-isoxazol-3-yl]carbamate]
mortality at 300 ppm (Spodoptera eridania): ≥ 75% | mortality at 300 ppm (Plutella xylostella; 72 h): ≥ 75% | mortality at 2500 ppm (Anthonomus grandis): ≥ 75% | mortality at 300 ppm (Dichromothrips corbetti; 72 h): ≥ 75% | mortality at 2500 ppm (Aedes aegypti): ≥ 75% | mortality at 2500 ppm (Heliothis virescens): ≥ 75%

N-[4-chloro-3-[4-(trifluoromethyl)pyrazol-1-yl]phenyl]-5-(3,5-dichloro-4-fluoro-phenyl)-N-(methoxymethyl)-5-(trifluoromethyl)-4H-isoxazol-3-amine [I-23]
mortality in comparison with untreated controls (Spodoptera eridania): at least 75% | mortality in comparison with untreated controls (Plutella xylostella; [1]): at least 75% | mortality in comparison with untreated controls (Dichromothrips corbetti; [3]): at least 75%
